From patent US20050113283A1, “Methods of treating conditions associated with an EDG-4 receptor” (priority 2002, published 2005)

Key:
Edg-5 = molecular target: T1, Edg-5 (Homo sapiens, UniProt O95136); experiment: Calcium mobilization assay (FLIPR), HTC cells expressing Edg 5; format: cell-based; conditions: agonist
T1 construct: expressed in transfected cells; host or cells: HTC rat hepatoma cells (from the earlier reading)

Edg-3 = molecular target: T2, Edg-3 (Homo sapiens, UniProt Q99500); experiment: Calcium mobilization assay (FLIPR), HTC cells expressing Edg 3; format: cell-based; conditions: agonist
T2 construct: expressed in transfected cells; host or cells: HTC rat hepatoma cells (from the earlier reading)
T2 sequence (Q99500 whole entry): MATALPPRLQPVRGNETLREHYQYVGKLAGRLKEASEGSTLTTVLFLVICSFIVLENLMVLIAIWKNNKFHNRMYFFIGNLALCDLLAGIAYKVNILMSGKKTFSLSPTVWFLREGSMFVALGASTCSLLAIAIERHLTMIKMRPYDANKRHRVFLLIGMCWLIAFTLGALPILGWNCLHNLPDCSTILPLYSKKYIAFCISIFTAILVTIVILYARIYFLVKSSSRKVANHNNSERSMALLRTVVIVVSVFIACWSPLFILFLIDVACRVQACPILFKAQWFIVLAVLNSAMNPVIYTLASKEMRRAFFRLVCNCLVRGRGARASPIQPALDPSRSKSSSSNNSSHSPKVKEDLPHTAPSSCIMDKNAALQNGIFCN

[1] = system: CaOV3 human ovarian cancer cells; experiment: Calcium response in CaOV3 cells; format: cell-based; conditions: CaOV3, naturally express human Edg-4, FIG. 16
Edg-7 = molecular target: T3, Edg-7 (Homo sapiens, UniProt Q9UBY5); experiment: Calcium mobilization assay (FLIPR), HTC cells expressing Edg 7; format: cell-based
T3 construct: expressed in transfected cells; host or cells: HTC rat hepatoma cells (from the earlier reading)
T3 sequence (Q9UBY5 1-353): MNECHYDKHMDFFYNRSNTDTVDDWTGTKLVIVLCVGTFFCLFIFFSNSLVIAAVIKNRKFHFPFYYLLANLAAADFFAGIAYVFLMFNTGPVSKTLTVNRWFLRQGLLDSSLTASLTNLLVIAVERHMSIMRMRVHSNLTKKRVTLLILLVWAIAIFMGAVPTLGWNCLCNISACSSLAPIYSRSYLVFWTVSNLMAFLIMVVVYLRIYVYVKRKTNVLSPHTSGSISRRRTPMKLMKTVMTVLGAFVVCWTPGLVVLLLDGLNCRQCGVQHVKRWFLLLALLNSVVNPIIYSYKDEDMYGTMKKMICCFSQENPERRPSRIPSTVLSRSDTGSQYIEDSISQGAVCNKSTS

human Edg-4 receptor [2] = experiment: Calcium mobilization assay (FLIPR), HTC rat hepatoma cells transfected with human Edg-4; format: cell-based; conditions: agonists; Edg-4 relative to other Edg receptors
Excerpt: (§1) LPA receptors such as Edg-4, couple to calcium effector pathways, and result in increases in intracellular calcium following receptor activation (An et al., Molecular Pharmacology, 54:881-888, 1998, incorporated herein by reference). This biological response lends itself to a very efficient, high-throughput screen using a Fluorescence Imaging Plate Reader (FLIPR; Molecular Devices, Sunnyvale, Calif.). The FLIPR system is a real-time, cell-based assay system with continuous fluorescence detection using a cooled CCD camera. The FLIPR system was used to developing an Edg-4 receptor screen. Rat hepatoma cells stably expressing Edg-4 receptor were plated on 384-well plates and loaded with a calcium dye loading kit (Molecular Devices, Sunnyvale, Calif.) for 1 hour at room temperature. Cells were then placed on the FLIPR^354 (Molecular Devices, Sunnyvale, Calif.) and excited by an argon laser at 488 nm. The data for the entire 384-well plate was updated every second. An integrated robotic pipettor allowed for simultaneous compound addition into each individual well in the plate.

human Edg-4 receptor [3] = molecular target: T4, human Edg-4 receptor (Homo sapiens, UniProt Q9HBW0); experiment: as above; format: cell-based
T4 construct: IC50 Edg-4; other: agonist, calcium mobilization; potency relative to compound 101; calcium response (agonist)
T4 sequence (Q9HBW0 1-340 limits assumed): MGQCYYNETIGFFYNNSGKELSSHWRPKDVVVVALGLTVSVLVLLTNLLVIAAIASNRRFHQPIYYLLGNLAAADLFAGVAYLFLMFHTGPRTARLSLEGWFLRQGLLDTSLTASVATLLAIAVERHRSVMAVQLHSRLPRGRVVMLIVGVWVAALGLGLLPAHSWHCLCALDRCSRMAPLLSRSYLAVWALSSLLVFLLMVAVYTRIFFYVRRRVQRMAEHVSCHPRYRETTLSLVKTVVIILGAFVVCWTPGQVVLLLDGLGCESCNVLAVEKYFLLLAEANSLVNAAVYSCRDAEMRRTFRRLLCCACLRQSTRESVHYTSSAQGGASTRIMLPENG
Excerpt: as §1

Edg-1 = molecular target: T5, Edg-1 (Homo sapiens, UniProt P21453); experiment: Calcium mobilization assay (FLIPR), HTC cells expressing Edg 1; format: cell-based; conditions: agonist
T5 construct: expressed in transfected cells; host or cells: HTC rat hepatoma cells (from the earlier reading)
T5 sequence (P21453 whole entry): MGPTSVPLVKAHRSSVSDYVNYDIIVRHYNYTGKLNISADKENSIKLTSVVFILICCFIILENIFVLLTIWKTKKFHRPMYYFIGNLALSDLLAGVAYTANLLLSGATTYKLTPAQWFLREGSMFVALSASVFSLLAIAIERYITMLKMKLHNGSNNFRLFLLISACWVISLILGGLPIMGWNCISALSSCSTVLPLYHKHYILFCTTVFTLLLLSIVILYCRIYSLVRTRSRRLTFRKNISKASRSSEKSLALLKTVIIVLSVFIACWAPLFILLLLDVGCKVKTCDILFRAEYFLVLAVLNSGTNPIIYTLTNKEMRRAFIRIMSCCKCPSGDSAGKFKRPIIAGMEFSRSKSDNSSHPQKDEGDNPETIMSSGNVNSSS

Edg-8 = molecular target: T6, Edg-8 (Homo sapiens, UniProt Q9H228); experiment: Calcium mobilization assay (FLIPR), HTC cells expressing Edg 8; format: cell-based; conditions: agonist
T6 construct: expressed in transfected cells; host or cells: HTC rat hepatoma cells (from the earlier reading)
T6 sequence (Q9H228 whole entry): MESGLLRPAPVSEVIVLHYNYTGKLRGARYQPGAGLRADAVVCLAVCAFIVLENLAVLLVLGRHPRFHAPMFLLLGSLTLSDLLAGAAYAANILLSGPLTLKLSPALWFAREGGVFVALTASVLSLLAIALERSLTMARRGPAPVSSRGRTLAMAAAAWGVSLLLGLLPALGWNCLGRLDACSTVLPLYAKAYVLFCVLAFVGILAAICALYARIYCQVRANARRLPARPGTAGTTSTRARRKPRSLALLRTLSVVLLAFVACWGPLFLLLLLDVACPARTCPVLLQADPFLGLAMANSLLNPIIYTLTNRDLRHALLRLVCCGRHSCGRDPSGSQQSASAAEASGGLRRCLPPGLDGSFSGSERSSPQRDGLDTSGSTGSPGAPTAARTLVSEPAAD

Edg-6 = molecular target: T7, Edg-6 (Homo sapiens, UniProt O95977); experiment: Calcium mobilization assay (FLIPR), HTC cells expressing Edg 6; format: cell-based; conditions: agonist
T7 construct: expressed in transfected cells; host or cells: HTC rat hepatoma cells (from the earlier reading)
T7 sequence (O95977 1-384): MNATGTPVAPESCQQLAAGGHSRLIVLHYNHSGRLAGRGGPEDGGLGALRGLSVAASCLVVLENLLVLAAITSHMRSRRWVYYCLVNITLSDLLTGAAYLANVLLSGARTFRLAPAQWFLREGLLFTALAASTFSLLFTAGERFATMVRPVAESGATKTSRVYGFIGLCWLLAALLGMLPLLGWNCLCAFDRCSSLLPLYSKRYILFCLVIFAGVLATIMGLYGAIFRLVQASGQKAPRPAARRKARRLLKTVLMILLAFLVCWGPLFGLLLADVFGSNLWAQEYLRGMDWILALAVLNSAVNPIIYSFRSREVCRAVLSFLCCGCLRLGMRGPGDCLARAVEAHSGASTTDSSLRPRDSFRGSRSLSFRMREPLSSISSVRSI

[4] = Calcium mobilization assay, Null; format: cell-based; conditions: agonist
Excerpt: as §1

Edg-2 = molecular target: T8, Edg-2 (Homo sapiens, UniProt Q92633); experiment: Calcium mobilization assay (FLIPR), HTC cells expressing Edg 2; format: cell-based; conditions: agonist
T8 construct: expressed in transfected cells; host or cells: HTC rat hepatoma cells (from the earlier reading)
T8 sequence (Q92633 whole entry): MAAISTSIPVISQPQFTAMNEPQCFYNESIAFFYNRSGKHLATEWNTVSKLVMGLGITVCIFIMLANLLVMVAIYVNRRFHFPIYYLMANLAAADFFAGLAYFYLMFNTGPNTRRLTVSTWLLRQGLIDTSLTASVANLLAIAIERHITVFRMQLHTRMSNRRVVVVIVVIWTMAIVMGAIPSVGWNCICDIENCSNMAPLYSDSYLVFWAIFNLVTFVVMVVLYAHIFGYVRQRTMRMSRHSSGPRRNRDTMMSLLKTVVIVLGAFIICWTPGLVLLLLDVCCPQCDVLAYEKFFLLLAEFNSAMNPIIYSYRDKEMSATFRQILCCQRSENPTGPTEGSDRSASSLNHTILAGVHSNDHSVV

[5] = system: human ovarian tumor growth within the chamber; experiment: In vivo Z-chamber study; parameters: species or system rat; conditions: rats, 5 mg/kg every other day, harvested day 16, FIG. 14
Procedure: The Z-chamber assay is a fibrin-based in vivo assay, wherein fibrin and thrombin are added through a port in a two-sided chamber sealed by a nylon mesh. The chamber is implanted in the subcutaneous space of an animal and harvested for evaluation. Fibrin matrices are formed in normal wound healing and are used by tumors to sustain growth, thus Z-chambers are designed to study, for example, angiogenesis, wound healing, and tumor growth. In addition, their design is useful, for example, in studies of localized gene expression, stem cell, adenoviral, and tissue generation.
The efficacy of 101 in an in vivo tumor model was examined by Z-chamber® (SRI, Menlo Park, Calif.) study. Each tumor chamber consisted of 150-160 μl cell suspension made by suspending 190 million cells in 20 ml fibrin (4 mg/ml). Following the introduction of cell suspension, 2 units of thrombin was added into each chamber and the mixture was allowed to gel for 5-7 minutes before implantation.
Rats were anesthetized with Nembutal (35 mg/kg). The skin of rats was surgically prepared with 70% alcohol. […]
101 was dissolved in a 1 to 1 cremophor:ethanol solution and diluted 4 times with 5% dextrose on water. […] The tumor thickness was measured and compared to a negative control, i.e., chambers with no treatment, and the positive treatment. […]

T1 sequence (O95136 whole entry): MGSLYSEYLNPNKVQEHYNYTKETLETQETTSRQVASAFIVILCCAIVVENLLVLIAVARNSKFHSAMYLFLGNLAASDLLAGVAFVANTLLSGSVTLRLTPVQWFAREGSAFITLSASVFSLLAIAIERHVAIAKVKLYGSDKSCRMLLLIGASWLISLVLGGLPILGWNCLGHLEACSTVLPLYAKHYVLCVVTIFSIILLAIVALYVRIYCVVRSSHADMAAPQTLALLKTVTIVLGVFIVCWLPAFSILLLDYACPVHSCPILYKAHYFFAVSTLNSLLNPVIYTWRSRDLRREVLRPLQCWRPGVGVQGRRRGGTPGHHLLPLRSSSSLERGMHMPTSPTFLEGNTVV

EC50 (Edg-5) [µM] | EC50 (Edg-3) [µM] | agonist activity at the Edg-7 receptor (Edg-7) | EC50 (Edg-7; agonist, calcium mobilization) [µM] | Fold Selectivity for Edg-4 (EC50) (human Edg-4 receptor [2]) | calcium response (agonist) (human Edg-4 receptor [3]; HTC cells transfected with human Edg-4, FIG. 15) | EC50 (human Edg-4 receptor [3]; agonist, calcium mobilization) [µM] | EC50 (Edg-1) [µM] | EC50 (Edg-8) [µM] | EC50 (Edg-6) [µM] | EC50 [4] [µM] | EC50 (Edg-2) [µM] | SMILES | calcium response elicited by 125, inhibited by antagonist 103 [1] | inhibition of tumor growth (positive control) [5]
> 25 | > 25 | acts as an agonist | 2.5 | >4.8 | elicits a calcium response | 5.2 | > 25 | > 25 | > 25 | > 25 | > 25 | COc1cc2c(cc1OC)C(c1c(Cl)cccc1Cl)NC(=O)C2 (centres unmarked) [Compound 125, 1-(2,6-dichlorophenyl)-6,7-dimethoxy-1,4-dihydro-2H-isoguinolin-3-one] | specificity is also observed | 
 |  |  |  |  |  |  |  |  |  |  |  | CC(=O)O[C@H]1C(=O)[C@@]2(C)[C@H]([C@H](OC(=O)c3ccccc3)[C@]3(O)C[C@H](OC(=O)[C@H](O)[C@@H](NC(=O)c4ccccc4)c4ccccc4)C(C)=C1C3(C)C)[C@]1(OC(C)=O)CO[C@@H]1C[C@@H]2O [Taxol] |  | inhibition of tumor growth
